Results from patent US8729228B2, “Method of producing a modified (poly) peptide” (University of Geneva, priority 2005, dated 2014).
Residues, ends and D or L forms follow the SMILES beside them. *: point of attachment. OBn = c1ccc(CO*)cc1

Key:
[1] = test system: α-smooth muscle-actin (α-SMA); experiment: α-SMA stress fibre assay in α-SMA-EGFP transfected REF-52 cells (confocal microscopy); type: cell-based, Rat; conditions: for penetration into the cell, monitored by detection of the expected biological activity: extent measured by comparison with the biological activity of standards
Method: FIG. 15: (a) Constructs designed to deliver the Ac-EEED peptide into cells through a semi-permanent carboxy esterification strategy. (b) Rat embryonic fibroblasts (REF-52 cells) transfected with the α-SMA-EGFP construct (Clement et al., J Cell Sci. 118, 1395-1404 (2005)) were trypsinized, plated on coverslips for 1 days in DMEM/2% FCS and treated with SMA-Peptide [Ac-E(OBzl)-E(OBzl)-E(OBzl)-D(OBzl)-K(Ac)-CONH2] (5 μg/ml) for 45 min in DMEM without FCS (37 C, incubator). Cells were the rinsed in DMEM, fixed with 1% PFA, and mounted for confocal microscopy (LSM510, Carl Zeiss) observation. α-SMA-EGFP transfected cells were either untreated (control; left), or treated for 45 minutes with SMA-Peptide [Ac-E(OBzl)-E(OBzl)-E(OBzl)-D(OBzl)-K(Ac)-CONH2] (right).
This example relates to delivery of the peptide using a semi-permanent carboxy esterification strategy of a synthetic peptide incorporating a C-terminal lysine residue, whose carboxy terminus is amidated and whose epsilon amino group is either acetylated or used as a handle to attach a tracer (fluorochrome, biotin, etc, FIG. 15(a)). Four constructs have been tested, varying the lipophilicity of the protecting ester moiety.

[2] = target: α-smooth muscle-actin (α-SMA) (Homo sapiens, UniProt P62736); conditions: microinjection (Chaponnier et al. 1995) and fusion to a PTD (Hinz et al. 2002); cited from earlier work

| Compound | α-SMA positive-stress fibers ([1]; REF-52 cells transfected with α-SMA-EGFP, 5 μg/ml for 45 min in DMEM without FCS, 37 C) | penetration into the cell, monitored by detection of the expected biological activity ([1]; listed as template) | penetration into the cell, monitored by detection of the expected biological activity ([1]; listed as template with the carboxylates esterified with benzyl groups) | blocking polymerisation of α-smooth muscle-actin (α-SMA) [2] |
| --- | --- | --- | --- | --- |
| CC(=O)NCCCC[C@H](NC(=O)[C@H](CC(=O)OCc1ccccc1)NC(=O)[C@H](CCC(=O)OCc1ccccc1)NC(=O)[C@H](CCC(=O)OCc1ccccc1)NC(=O)[C@H](CCC(=O)OCc1ccccc1)NC(C)=O)C(N)=O [SMA-Peptide, Ac-E(OBzl)-E(OBzl)-E(OBzl)-D(OBzl)-K(Ac)-CONH2] (Ac-E(OBn)E(OBn)E(OBn)D(OBn)K(Ac)-NH2) | provokes α-SMA positive-stress fiber disappearance | incomplete | showed penetration into the cell | – |
| Ac-EEED | – | – | – | capable of blocking polymerisation of α-smooth muscle-actin (α-SMA) |
